Laboratory results published in US20170128480A1, “Cardiac Glycosides for the Treatment of Hypercholesterolemia” (priority 2015, published 2017).

How the values were obtained:
human ApoB-100 = assay: Drug treatment of humanized FRGN avatar mice, serum human ApoB-100 and albumin by ELISA; type: in vivo; conditions: i.p., 48-hour period, Digoxin 0.5 mg/kg, Proscillaridin 0.6 mg/kg/day, p≦0.05
Protocol: Prior to any drug or vehicle treatment, the ratio of ApoB-100 to albumin is approximately 30% higher in the serum of avatars repopulated with hepatocytes from donor A compared to donor B (p=0.032) (FIG. 8A). Human ApoB-100 and albumin is then measured before and after treatment with DMSO (vehicle), Digoxin or Proscillaridin, over a 48-hour period of time (FIG. 8C). […] The concentration of human albumin is unaffected in the serum of the same animals (FIG. 8B).
A sandwich ELISA to detect human albumin in tissue culture supernatants and mouse sera uses a 1:100 dilution of a capture human albumin coating antibody (Bethyl laboratories, A80-129A) and a 1:85,000 dilution of a Horseradish Peroxidase (HRP) conjugated human albumin detection antibody (Bethyl laboratories, A80-129P). Bound antibody is detected using 3,3′,5,5′-tetramethylbenzidine (TMB) and the concentration of albumin in each sample is determined by comparing to a standard curve (Bethyl laboratories, RS10-110). Human lipidated apoB-100 is detected using a commercial sandwich ELISA (product code: 3715-1H-6; MabTech, Inc.) and detected using TMB. The concentration of apoB-100 is determined by comparing to a standard curve using lipidated apoB-100 supplied by the manufacturer.
Fah^−/−Rag2^−/−IL2 gr^−/−NOD (FRGN) mice are generated and supplied by Dr. Markus Grompe. […]

hepatocytes = assay: Lipoprotein profile (VLDL/LDL/HDL) of hepatocyte secretion by FPLC; type: cell-based; conditions: 310 nm; 4-hr collection period
Protocol: FIGS. 13A-B (A) is a graph of the results of a FPLC showing the impact of Digoxin and Proscillaridin on the increase in the size of LDL/VLDL particles and the increase of HDL particle number in serum (FIG. 13B, enhanced).
The experiment is a simple collection of cell culture media and then uses a known assay to measure VLDL/LDL/HDL by HPLC.
Cell culture media (the serum samples of example 5) is collected and then using a known assay (see, Example 3) VLDL/LDL/HDL is measured by FPLC HPLC. The experiment was performed by Evanthia Pashos Ph.D, a post-doctoral researcher at the University of Pennsylvania. Dr. Pashos was instructed what concentration of drugs to use, how long to incubate, and to record lipoprotein profiles for HDL, LDL, VLDL. […] Hepatocyte secretion was collected and analyzed over a 4-hr collection period.

[1] = tested on: FH patient-specific iPSC-derived hepatocytes; assay: ApoB-100 ELISA on culture medium of FH patient-specific iPSC-derived hepatocytes ([…] screen and triplicate validation); type: cell-based, human; conditions: tested in triplicate; FIG. 3
Protocol: ApoB-100 secretion is measured by enzyme linked immunosorbent assay (ELISA) using an antibody that specifically detects lipidated apoB-100, which represents lipoprotein particles secreted by the iPSC-derived hepatocytes. […] FH patient-specific iPSC cells are differentiated to hepatocyte-like cells in 96-well plates and the levels of lipidated ApoB-100 are measured before and after the application of 2320 small molecules from the [sequence] collection drug library (FIGS. 2A-B).
Using the before-drug and after-drug ApoB-100 concentration for each individual well (see the Examples below; each well represents 1 drug), a post:pre drug ratio of ApoB-100 is generated (referred to as delta-apoB-100; FIGS. 2A and 2B) and primary hits are identified by z-score analysis (FIG. 2B) as described by Zhang (Zhang, X. D., J Biomol Screen 16, 775-785 (2011)). A z-score is calculated for each compound, representing a multiple of the standard deviation of all the compounds included in the parent plate (30 plates total—FIG. 2A). […]
Pre-drug and post-drug apoB-100 concentrations are determined for each compound in the [sequence] library using a standard curve and four-parameter logistic (4PL) regression model. […] Primary hits are validated in secondary replicate experiments (n=3), and statistical significance is determined by a Student's t-test. […]

Na+/K+-ATPase α2 subunit = Na+/K+-ATPase α2 subunit (Rattus norvegicus, UniProt P06686); conditions: Kolansky et al. 1992; cited from earlier work
Na+/K+-ATPase α3 subunit = Na+/K+-ATPase α3 subunit (Rattus norvegicus, UniProt P06687); conditions: Kolansky et al. 1992; cited from earlier work

Row | Compound | serum human ApoB-100 levels (human ApoB-100) | HDL secretion (hepatocytes) | VLD/LDL particle size (hepatocytes) | VLD/LDL total quantity (hepatocytes) | Reductions of ApoB-100 levels, of DMSO controls [1] [%] | ouabain sensitivity (Na+/K+-ATPase α2 subunit) | ouabain sensitivity (Na+/K+-ATPase α3 subunit) [nM]
1 | CC1O[C@@H](O[C@H]2C(O)C[C@H](O[C@H]3C(O)C[C@H](OC4CC[C@@]5(C)[C@H](CC[C@@H]6[C@@H]5C[C@@H](O)[C@]5(C)[C@@H](C7=CC(=O)OC7)CC[C@]65O)C4)OC3C)OC2C)CC(O)[C@@H]1O (stereo partly drawn) [Digoxin] | significantly reduces serum ApoB-100 levels | increase HDL secretion | increase VLD/LDL particle size | reduce VLD/LDL total quantity | – | – | –
2 | C[C@@H]1O[C@@H](O[C@H]2C[C@@H](O)[C@]3(CO)[C@H]4[C@H](O)C[C@]5(C)[C@@H](C6=CC(=O)OC6)CC[C@]5(O)[C@@H]4CC[C@]3(O)C2)[C@H](O)[C@H](O)[C@H]1O [Ouabain, Ouabain (Strophanthin)] | – | – | – | – | 71 | approximately 40 nM | ~80
3 | C[C@@H]1OC(O[C@@H]2C=C3CC[C@@H]4[C@H](CC[C@]5(C)[C@@H](c6ccc(=O)oc6)CC[C@]45O)[C@@]3(C)CC2)[C@H](O)C(O)C1O (stereo partly drawn) [Proscillaridin] | significantly reduces serum ApoB-100 levels | increase HDL secretion | increase VLD/LDL particle size | reduce VLD/LDL total quantity | – | – | –
4 | Gitoxin | – | – | – | – | 27 | – | –
